Test results reported in PubChem BioAssay (NCI).
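Cultured in 96-well plates, cells were exposed to test compound for 48 hours across five concentrations. TGI marks complete inhibition of growth.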 Active and inactive are the calls of the source. Rule as the data show it: active = GI50 below about 0.43 µM; inactive = the rest.

Key:
Assay in all cases: NCI tumour cell line growth inhibition, 48 h
U251 CNS = system: U251 CNS
OVCAR-4 ovarian = system: OVCAR-4 ovarian
IGROV1 ovarian = system: IGROV1 ovarian
HT29 colon = system: HT29 colon
UO-31 renal = system: UO-31 renal
OVCAR-3 ovarian = system: OVCAR-3 ovarian
NCI-H23 lung = system: NCI-H23 lung
HCC-2998 colon = system: HCC-2998 colon
A498 renal = system: A498 renal
MALME-3M melanoma = system: MALME-3M melanoma
BT-549 breast = system: BT-549 breast
PC-3 prostate = system: PC-3 prostate
SK-MEL-5 melanoma = system: SK-MEL-5 melanoma
SW-620 colon = system: SW-620 colon
SK-MEL-28 melanoma = system: SK-MEL-28 melanoma
MDA-MB-435 = system: MDA-MB-435
NCI/ADR-RES ovarian = system: NCI/ADR-RES ovarian
COLO 205 colon = system: COLO 205 colon
UACC-62 melanoma = system: UACC-62 melanoma
HS 578T breast = system: HS 578T breast
NCI-H460 lung = system: NCI-H460 lung
OVCAR-5 ovarian = system: OVCAR-5 ovarian
SNB-75 CNS = system: SNB-75 CNS
MOLT-4 leukemia = system: MOLT-4 leukemia
DU-145 prostate = system: DU-145 prostate
SR leukemia = system: SR leukemia
MCF7 breast = system: MCF7 breast
SN12C renal = system: SN12C renal
SK-MEL-2 melanoma = system: SK-MEL-2 melanoma
SK-OV-3 ovarian = system: SK-OV-3 ovarian
CAKI-1 renal = system: CAKI-1 renal
CCRF-CEM leukemia = system: CCRF-CEM leukemia
HCT-116 colon = system: HCT-116 colon
LOX IMVI melanoma = system: LOX IMVI melanoma
OVCAR-8 ovarian = system: OVCAR-8 ovarian
RXF 393 renal = system: RXF 393 renal
SF-539 CNS = system: SF-539 CNS
UACC-257 melanoma = system: UACC-257 melanoma
HOP-62 NSCLC = system: HOP-62 NSCLC
HCT-15 colon = system: HCT-15 colon
MDA-MB-231 breast = system: MDA-MB-231 breast
TK-10 renal = system: TK-10 renal
HOP-92 NSCLC = system: HOP-92 NSCLC
M14 melanoma = system: M14 melanoma
SNB-19 CNS = system: SNB-19 CNS
SF-268 CNS = system: SF-268 CNS
K-562 leukemia = system: K-562 leukemia
EKVX NSCLC = system: EKVX NSCLC
SF-295 CNS = system: SF-295 CNS
A549 NSCLC = system: A549 NSCLC
T-47D breast = system: T-47D breast
HL-60(TB) leukemia = system: HL-60(TB) leukemia
NCI-H226 lung = system: NCI-H226 lung
KM12 colon = system: KM12 colon
786-0 renal = system: 786-0 renal
NCI-H522 lung = system: NCI-H522 lung
ACHN renal = system: ACHN renal
RPMI-8226 leukemia = system: RPMI-8226 leukemia

For `O=c1cc(-c2cc(O)c(O)c(-c3c(O)cc(O)c4c(=O)cc(-c5ccc(O)c(O)c5)oc34)c2)oc2cc(O)cc(O)c12`, the outcome (U251 CNS) was “inactive”, the outcome (OVCAR-4 ovarian) was “inactive” and the outcome (IGROV1 ovarian) was “inactive”. For the same compound, the outcome (HT29 colon) was “inactive”, the outcome (UO-31 renal) was “inactive” and the outcome (OVCAR-3 ovarian) was “inactive”. For the same compound, the outcome (NCI-H23 lung) was “inactive”, the outcome (HCC-2998 colon) was “inactive” and the outcome (A498 renal) was “inactive”. The outcome (MALME-3M melanoma) was “inactive”, the outcome (BT-549 breast) was “inactive” and the outcome (PC-3 prostate) was “inactive”. For the same compound, the outcome (SK-MEL-5 melanoma) was “inactive”, the outcome (SW-620 colon) was “inactive” and the outcome (SK-MEL-28 melanoma) was “inactive”. For the same compound, the outcome (MDA-MB-435) was “inactive”, the outcome (NCI/ADR-RES ovarian) was “inactive” and the outcome (COLO 205 colon) was “inactive”. For the same compound, the outcome (UACC-62 melanoma) was “inactive”, the outcome (HS 578T breast) was “inactive” and the outcome (NCI-H460 lung) was “inactive”. For the same compound, the outcome (OVCAR-5 ovarian) was “inactive”, the outcome (SNB-75 CNS) was “inactive” and the outcome (MOLT-4 leukemia) was “inactive”. The outcome (DU-145 prostate) was “inactive”, the outcome (SR leukemia) was “inactive” and the outcome (MCF7 breast) was “inactive”. The outcome (SN12C renal) was “inactive”, the outcome (SK-MEL-2 melanoma) was “inactive” and the outcome (SK-OV-3 ovarian) was “inactive”. The outcome (CAKI-1 renal) was “inactive”, the outcome (CCRF-CEM leukemia) was “inactive” and the outcome (HCT-116 colon) was “inactive”. The outcome (LOX IMVI melanoma) was “inactive”, the outcome (OVCAR-8 ovarian) was “inactive” and the outcome (RXF 393 renal) was “inactive”. For the same compound, the outcome (SF-539 CNS) was “inactive”, the outcome (UACC-257 melanoma) was “inactive” and the outcome (HOP-62 NSCLC) was “inactive”. The outcome (HCT-15 colon) was “inactive”, the outcome (MDA-MB-231 breast) was “inactive” and the outcome (TK-10 renal) was “inactive”. For the same compound, the outcome (HOP-92 NSCLC) was “inactive”, the outcome (M14 melanoma) was “inactive” and the outcome (SNB-19 CNS) was “inactive”. For the same compound, the outcome (SF-268 CNS) was “inactive”, the outcome (K-562 leukemia) was “inactive” and the outcome (EKVX NSCLC) was “inactive”. For the same compound, the outcome (SF-295 CNS) was “inactive”, the outcome (A549 NSCLC) was “inactive” and the outcome (T-47D breast) was “inactive”. The outcome (HL-60(TB) leukemia) was “inactive”.
With `CC(=O)OC1C2CCC1C1C2N=NN1c1ccc([N+](=O)[O-])cc1` (configuration not stated) the TGI (U251 CNS) was greater than 100 µM, the TGI (OVCAR-4 ovarian) was greater than 100 µM and the TGI (IGROV1 ovarian) was greater than 100 µM. It also gave a TGI (HT29 colon) greater than 100 µM, a TGI (NCI-H226 lung) greater than 100 µM and a TGI (UO-31 renal) greater than 100 µM. The TGI (OVCAR-3 ovarian) was greater than 100 µM, the TGI (NCI-H23 lung) was greater than 100 µM and the TGI (HCC-2998 colon) was greater than 100 µM. For the same compound, the TGI (A498 renal) was greater than 100 µM, the TGI (MALME-3M melanoma) was greater than 100 µM and the TGI (BT-549 breast) was greater than 100 µM. For the same compound, the TGI (PC-3 prostate) was greater than 100 µM, the TGI (SK-MEL-5 melanoma) was greater than 100 µM and the TGI (SW-620 colon) was greater than 100 µM. It also gave a TGI (SK-MEL-28 melanoma) greater than 100 µM, a TGI (MDA-MB-435) greater than 100 µM and a TGI (NCI/ADR-RES ovarian) greater than 100 µM. It also gave a TGI (KM12 colon) greater than 100 µM, a TGI (COLO 205 colon) greater than 100 µM and a TGI (786-0 renal) greater than 100 µM. It also gave a TGI (UACC-62 melanoma) greater than 100 µM, a TGI (HS 578T breast) greater than 100 µM and a TGI (NCI-H522 lung) greater than 100 µM. For the same compound, the TGI (NCI-H460 lung) was greater than 100 µM, the TGI (OVCAR-5 ovarian) was greater than 100 µM and the TGI (SNB-75 CNS) was greater than 100 µM. For the same compound, the TGI (MOLT-4 leukemia) was greater than 100 µM, the TGI (DU-145 prostate) was greater than 100 µM and the TGI (SR leukemia) was greater than 100 µM. It also gave a TGI (MCF7 breast) greater than 100 µM, a TGI (SN12C renal) greater than 100 µM and a TGI (SK-MEL-2 melanoma) greater than 100 µM. The TGI (SK-OV-3 ovarian) was greater than 100 µM, the TGI (CCRF-CEM leukemia) was greater than 100 µM and the TGI (HCT-116 colon) was greater than 100 µM. For the same compound, the TGI (LOX IMVI melanoma) was greater than 100 µM, the TGI (OVCAR-8 ovarian) was greater than 100 µM and the TGI (SF-539 CNS) was greater than 100 µM. For the same compound, the TGI (UACC-257 melanoma) was greater than 100 µM, the TGI (HOP-62 NSCLC) was greater than 100 µM and the TGI (HCT-15 colon) was greater than 100 µM. For the same compound, the TGI (MDA-MB-231 breast) was greater than 100 µM, the TGI (TK-10 renal) was greater than 100 µM and the TGI (HOP-92 NSCLC) was greater than 100 µM. It also gave a TGI (M14 melanoma) greater than 100 µM, a TGI (SNB-19 CNS) greater than 100 µM and a TGI (SF-268 CNS) greater than 100 µM. The TGI (ACHN renal) was greater than 100 µM, the TGI (EKVX NSCLC) was greater than 100 µM and the TGI (SF-295 CNS) was greater than 100 µM. The TGI (A549 NSCLC) was greater than 100 µM, the TGI (T-47D breast) was greater than 100 µM and the TGI (RPMI-8226 leukemia) was greater than 100 µM. For the same compound, the TGI (HL-60(TB) leukemia) was greater than 100 µM.
